Like-named read-outs stand apart in the source and are kept apart here.
How the values were obtained:
neuroblastoma cell lines = experiment: Cell based assay, cell viability (CellTiter-Glo), neuroblastoma cell lines; settings: Homo sapiens; SH-SY5Y cell line
Procedure: (§1) Commercially available bladder cancer, prostate cancer, lung cancer, breast cancer, blood cancer, pancreatic cancer, colorectal cancer, brain cancer, neuroblastoma, melanoma, liver cancer, cervical carcinoma, ovarian cancer, renal cancer, and papilloma cell lines were each treated with trypsin-EDTA and cultured, followed by being seeded in each well of a 96 well plate. After 24 hours of treatment at constant temperature, the respective cells were treated with the candidate compound so that a final concentration became 0 to 2 μM. The treated cells were additionally cultured for 72 hours, and cell viability was measured by using an ATP detection method (CellTiter-Glo® Luminescent Cell Viability Assay, Promega).

[1] = test system: bladder cancer cell lines; experiment: Cell based assay, cell viability (CellTiter-Glo), bladder cancer cell lines; settings: 72 hours treatment, 0 to 2 μM, CellTiter-Glo
Procedure: as §1

[2] = 253J cells, read-out: IC50, bladder cancer cell line 253J
[3] = 5637 cells, read-out: IC50, bladder cancer cell line 5637
[4] = Homo sapiens, T-24, T24 cells, read-out: IC50, bladder cancer cell line T24
[5] = Homo sapiens, UMUC3, UM-UC-3 cells, read-out: IC50, bladder cancer cell line UM-UC-3
[6] = Homo sapiens, J82 cells, read-out: IC50, bladder cancer cell line J82
[7] = Homo sapiens, KU-19-19 cells, read-out: IC50, bladder cancer cell line KU-19-19
[8] = MBT-2 cells, read-out: IC50, bladder cancer cell line MBT-2

| IC50 (neuroblastoma cell lines) [µM] | IC50 [1, 2] [µM] | IC50 [1, 3] [µM] | IC50 [1, 4] [µM] | IC50 [1, 5] [µM] | IC50 [1, 6] [µM] | IC50 [1, 7] [µM] | IC50 [1, 8] [µM] | Structure (SMILES) |
| --- | --- | --- | --- | --- | --- | --- | --- | --- |
| > 2 | 1.08 | 1.62 | 1.5 | 1.2 | 1.89 | 1.5 | 1.26 | CC(=O)c1c([S+]([O-])Cc2ccc(S(F)(F)(F)(F)F)cc2F)[nH]c2c(Br)ccc(Cl)c2c1=O (stereo not drawn) [Compound 69, 3-acetyl-8-bromo-5-chloro-2-((2-fluoro-4-(pentafluoro-16-sulfanyl)benzyl)sulfinyl)quinolin-4(1H)-one] |
| > 2 | 0.9 | 1.68 | 1.51 |  | 1.62 |  |  | CC(=O)c1c([S+]([O-])Cc2cccc(S(F)(F)(F)(F)F)c2)[nH]c2c(Br)ccc(Cl)c2c1=O (stereo not drawn) [Compound 77, 3-acetyl-8-bromo-5-chloro-2-((3-(pentafluoro--sulfanyl)benzyl)sulfinyl)quinolin-4(1H)-one] |
| > 2 | > 2 | > 2 | > 2 |  | > 2 |  |  | CC(=O)c1c([S+]([O-])Cc2ccc(SC(F)(F)F)cc2)[nH]c2c(Cl)ccc(Cl)c2c1=O (stereo not drawn) [Compound 79, 3-acetyl-5,8-dichloro-2-((4-((trifluoromethyl)thio)benzyl)sulfinyl)quinolin-4(1H)-one] |
| > 2 | > 2 | > 2 | > 2 |  | > 2 |  |  | CC(=O)c1c([S+]([O-])Cc2ccc(S(F)(F)(F)(F)F)cc2)[nH]c2c(F)ccc(F)c2c1=O (stereo not drawn) [Compound 80, 3-acetyl-5,8-difluoro-2-((4-(pentafluoro--sulfanyl)benzyl)sulfinyl)quinolin-4(1H)-one] |
| > 2 | > 2 | > 2 | > 2 |  | > 2 |  |  | CC(=O)c1c([S+]([O-])Cc2ccc(C(F)(F)F)o2)[nH]c2c(F)ccc(F)c2c1=O (stereo not drawn) [Compound 81, 3-acetyl-5,8-difluoro-2-(((5-(trifluoromethyl)furan-2-yl)methyl)sulfinyl)quinolin-4(1H)-one] |
| 1.55 | > 2 | > 2 | > 2 |  | > 2 |  |  | CC(=O)c1c([S+]([O-])Cc2cc(C)on2)[nH]c2c(F)ccc(F)c2c1=O (stereo not drawn) [Compound 82, 3-acetyl-5,8-difluoro-2-(((5-methylisoxazol-3-yl)methyl)sulfinyl)quinolin-4(1H)-one] |
| > 2 | > 2 | > 2 | > 2 |  | > 2 |  |  | CC(C)C(=O)c1c([S+]([O-])Cc2ccc(SC(F)(F)F)cc2)[nH]c2c(F)ccc(F)c2c1=O (stereo not drawn) [Compound 85, 5,8-difluoro-3-isobutyryl-2-((4-((trifluoromethyl)thio)benzyl)sulfinyl)quinolin-4(1H)-one] |
| > 2 | > 2 | > 2 | > 2 |  | > 2 |  |  | O=C(c1ccccc1)c1c([S+]([O-])Cc2ccc(S(F)(F)(F)(F)F)cc2)[nH]c2c(F)ccc(F)c2c1=O (stereo not drawn) [Compound 87, 3-benzoyl-5,8-difluoro-2-((4-(pentafluoro--sulfanyl)benzyl)sulfinyl)quinolin-4(1H)-one] |
| 1.51 | > 2 | > 2 | > 2 |  | > 2 |  |  | Cc1cc(C[S+]([O-])c2[nH]c3c(Cl)ccc(Cl)c3c(=O)c2C(=O)c2ccccc2)no1 (stereo not drawn) [Compound 88, 3-benzoyl-5,8-dichloro-2-(((5-methylisoxazol-3-yl)methyl)sulfinyl)quinolin-4(1H)-one] |
| > 2 | > 2 | > 2 | > 2 | > 2 | > 2 | > 2 | > 2 | CC(=O)c1c([S+]([O-])CN2C(=O)c3ccccc3C2=O)[nH]c2c(Cl)ccc(Cl)c2c1=O (stereo not drawn) [Compound 90, 2-(((3-acetyl-5,8-dichloro-4-oxo-1,4-dihydroquinolin-2-yl)sulfinyl)methyl)isoindoline-1,3-dione] |
| 1.22 | > 2 | > 2 | > 2 |  | > 2 |  |  | COC(=O)c1ccc(C[S+]([O-])c2[nH]c3c(Cl)ccc(Cl)c3c(=O)c2C(C)=O)cc1 (stereo not drawn) [Compound 91, methyl 4-(((3-acetyl-5,8-dichloro-4-oxo-1,4-dihydroquinolin-2-yl)sulfinyl)methyl)benzoate] |
| > 2 | > 2 | > 2 | > 2 | > 2 | > 2 | > 2 | > 2 | COc1cccc2[nH]c(SCc3ccc(S(F)(F)(F)(F)F)cc3)c(C(C)=O)c(=O)c12 [Compound 92, 3-acetyl-5-methoxy-2-((4-(pentafluoro--sulfanyl)benzyl)thio)quinolin-4(1H)-one] |
| > 2 | > 2 | > 2 | > 2 |  | > 2 |  |  | COc1cccc2[nH]c([S+]([O-])Cc3ccc(S(F)(F)(F)(F)F)cc3)c(C(C)=O)c(=O)c12 (stereo not drawn) [Compound 93, 3-acetyl-5-methoxy-2-((4-(pentafluoro--sulfanyl)benzyl)sulfinyl)quinolin-4(1H)-one] |
| 1.76 | > 2 | > 2 | > 2 |  | > 2 |  |  | COc1cccc2[nH]c([S+]([O-])Cc3cc(C)on3)c(C(C)=O)c(=O)c12 (stereo not drawn) [Compound 94, 3-acetyl-5-methoxy-2-(((5-methylisoxazol-3-yl)methyl)sulfinyl)quinolin-4(1H)-one] |
| 0.77 |  | > 2 | 1.66 |  | > 2 |  |  | Cc1cc(C[S+]([O-])c2[nH]c3c(Br)ccc(Cl)c3c(=O)c2C(=O)C2CC2)no1 (stereo not drawn) [Compound 96, 8-bromo-5-chloro-3-(cyclopropanecarbonyl)-2-(((5-methylisoxazol-3-yl)methyl)sulfinyl)quinolin-4(1H)-one] |
| 0.6 |  | 1.91 |  |  | > 2 |  |  | Cc1cc(C[S+]([O-])c2[nH]c3c(Cl)ccc(Cl)c3c(=O)c2C(=O)C2CC2)no1 (stereo not drawn) [Compound 97, 5,8-dichloro-3-(cyclopropanecarbonyl)-2-(((5-methylisoxazol-3-yl)methyl)sulfinyl)quinolin-4(1H)-one] |
| 0.83 |  | > 2 | 1.32 |  | > 2 |  |  | CC(=O)c1c([S+]([O-])Cc2ccc(C#N)s2)[nH]c2c(Br)ccc(Cl)c2c1=O (stereo not drawn) [Compound 98, 5-(((3-acetyl-8-bromo-5-chloro-4-oxo-1,4-dihydroquinolin-2-yl)sulfinyl)methyl)thiophene-2-carbonitrile] |
| 0.45 | 0.8 | 1.62 | 0.85 |  | 1.5 |  |  | CC(=O)c1c([S+]([O-])Cc2ccc(-n3cccn3)nc2)[nH]c2c(Br)ccc(Cl)c2c1=O (stereo not drawn) [Compound 99, 2-(((6-(1H-pyrazol-1-yl)pyridin-3-yl)methyl)sulfinyl)-3-acetyl-8-bromo-5-chloroquinolin-4(1H)-one] |
| > 2 | > 2 | > 2 | > 2 |  | > 2 |  |  | CC(=O)c1c([S+]([O-])Cc2ccc(N)nc2)[nH]c2c(Br)ccc(Cl)c2c1=O (stereo not drawn) [Compound 100, 3-acetyl-2-(((6-aminopyridin-3-yl)methyl)sulfinyl)-8-bromo-5-chloroquinolin-4(1H)-one] |
| 1.4 |  | > 2 | > 2 |  | > 2 |  |  | O=C(c1c([S+]([O-])Cc2ccc(SC(F)(F)F)cc2)[nH]c2c(Br)ccc(Cl)c2c1=O)C1CC1 (stereo not drawn) [Compound 101, 8-bromo-5-chloro-3-(cyclopropanecarbonyl)-2-((4-((trifluoromethyl)thio)benzyl)sulfinyl)quinolin-4(1H)-one] |
| 0.52 |  | > 2 | 1.03 |  | > 2 |  |  | CC(=O)c1c([S+]([O-])Cc2ccc(C(F)(F)F)nc2C)[nH]c2c(Br)ccc(Cl)c2c1=O (stereo not drawn) [Compound 102, 3-acetyl-8-bromo-5-chloro-2-(((2-methyl-6-(trifluoromethyl)pyridin-3-yl)methyl)sulfinyl)quinolin-4(1H)-one] |

Reference: patent US11464770B2, “Anticancer pharmaceutical composition” (NATIONAL CANCER CENTER, priority 2016, dated 2022)
